According to patent US10071967B2, “N-cycloalkyl-N-{[2-(1-substitutedcycloalkyl)phenyl]methylene}-(thio)carboxamide derivatives” (BAYER CROPSCIENCE AKTIENGESELLSCHAFT, priority 2013, dated 2018):

Assay: log P by HPLC on a reversed-phase column (C 18), EEC Directive 79/831 Annex V.A8
Format: physicochemical
Conditions: HPLC reversed-phase C 18, 40° C., 0.1% aqueous formic acid and acetonitrile, gradient 10% to 90% acetonitrile
Method: In table 1, the log P values were determined in accordance with EEC Directive 79/831 Annex V.A8 by HPLC (High Performance Liquid Chromatography) on a reversed-phase column (C 18), using the method described below: Temperature: 40° C.; Mobile phases: 0.1% aqueous formic acid and acetonitrile; linear gradient from 10% acetonitrile to 90% acetonitrile. Calibration was carried out using unbranched alkan-2-ones (comprising 3 to 16 carbon atoms) with known log P values (determination of the log P values by the retention times using linear interpolation between two successive alkanones). lambda-max-values were determined using UV-spectra from 200 nm to 400 nm and the peak values of the chromatographic signals.

logP | SMILES
3.94 | Cn1cc(C(=S)N(Cc2cc(F)ccc2C2(C(F)(F)F)CC2)C2CC2)c(C(F)F)n1 [Example 1.152]
3.19 | COCC1(c2ccc(C)cc2CN(C(=O)c2c(C)nn(C)c2Cl)C2CC2)CC1 [Example 1.158]
4.44 | Cc1cc(C(=O)N(Cc2cc(F)ccc2C2(C(F)(F)F)CC2)C2CC2)c(C)o1 [Example 1.151]
4.28 | Cn1cc(C(=O)N(Cc2cc(Cl)c(Cl)cc2C2(C)CC2)C2CC2)c(C(F)F)n1 [Example 1.163]
4.61 | Cc1nn(C)c(Cl)c1C(=O)N(Cc1cc(Cl)c(Cl)cc1C1(C)CC1)C1CC1 [Example 1.161]

Same assay, conditions: HPLC, reversed-phase column (C 18), 40° C.; 0.1% aqueous formic acid and acetonitrile, linear gradient 10% to 90% acetonitrile

logP | SMILES
2.98 | COc1cc(CN(C(=O)c2cn(C)nc2C(F)F)C2CC2)c(C2(C)CC2)cc1OC [Example 1.020]
4.24 | Cc1nn(C)c(Cl)c1C(=O)N(Cc1cc(Br)ccc1C1(C)CC1)C1CC1 [Example 1.023]
4.85 | CCC1(c2cc(C)c(F)cc2CN(C(=O)c2nn(C)nc2C(F)F)C2CC2)CC1 [Example 1.079]
4.18 | Cc1nn(C)c(F)c1C(=S)N(Cc1ccc(F)cc1C1(C)CC1)C1CC1 [Example 1.015]
5.72 | Cc1ccc(C2(C)CC2)c(CN(C(=S)c2sccc2I)C2CC2)c1 [Example 1.054]
5.05 | Cc1ccc(C2(C3CC3)CC2)c(CN(C(=O)c2cc(C)oc2C)C2CC2)c1 [Example 1.109]
4.59 | CCCC1(c2ccc(C)cc2CN(C(=O)c2cn(C)nc2C(F)F)C2CC2)CC1 [Example 1.114]
3.74 | CCC1(c2cccc(F)c2CN(C(=O)c2cn(C)nc2C(F)F)C2CC2)CC1 [Example 1.102]
4.25 | CCC1(c2cc(Cl)ccc2CN(C(=O)c2cn(C)nc2C(F)F)C2CC2)CC1 [Example 1.070]
2.84 | CCC1(c2ccc(C)cc2CN(C(=O)c2c(OC(F)F)nn(C)c2Cl)C2CC2)CC1 [Example 1.101]
4.27 | CCC1(c2ccc(C(F)(F)F)cc2CN(C(=O)c2cn(C)nc2C(F)F)C2CC2)CC1 [Example 1.085]
4.21 | CCOC1(c2ccc(C)cc2CN(C(=O)c2nn(C)nc2C(F)F)C2CC2)CC1 [Example 1.126]
2.88 | COC1(c2ccccc2CN(C(=O)c2cn(C)nc2C(F)F)C2CC2)CC1 [Example 1.104]
3.46 | Cc1nn(C)c(F)c1C(=O)N(Cc1ccc(F)cc1C1(C)CC1)C1CC1 [Example 1.014]
4.67 | CCC1(c2cc(C)ccc2CN(C(=S)c2cn(C)nc2C(F)F)C2CC2)CC1 [Example 1.076]
3.73 | Cc1ccc(C2(C)CC2)c(CN(C(=O)c2c(C)nn(C)c2F)C2CC2)c1 [Example 1.040]
4.39 | Cc1ccc(C2(C)CC2)c(CN(C(=O)c2oc(C)nc2C(F)F)C2CC2)c1 [Example 1.046]
5.00 | Cn1nc(C(=O)N(Cc2ccc(-c3ccccc3)cc2C2(C)CC2)C2CC2)c(C(F)F)n1 [Example 1.022]
4.54 | Cc1ccc(C2(C(C)C)CC2)c(CN(C(=O)c2c(C)nn(C)c2F)C2CC2)c1 [Example 1.122]
3.71 | CCOC1(c2ccc(C)cc2CN(C(=O)c2c(C)nn(C)c2Cl)C2CC2)CC1 [Example 1.131]
4.39 | Cn1cc(C(F)F)c(C(=O)N(Cc2cc(Br)ccc2C2(C)CC2)C2CC2)n1 [Example 1.025]
5.08 | Cc1cc(C(=O)N(Cc2c(C3(C)CC3)ccc(C)c2F)C2CC2)c(C)o1 [Example 1.055]

logP | SMILES
3.23 | COc1ccc(CN(C(=O)c2c(C)nn(C)c2F)C2CC2)c(C2(C)CC2)c1 [Example 1.018]
4.39 | Cc1ccc(C2(C)CC2)c(CN(C(=S)c2cn(C)nc2C(F)F)C2CC2)c1 [Example 1.052]
4.11 | Cc1ccc(C2(C3CC3)CC2)c(CN(C(=O)c2c(C)nn(C)c2F)C2CC2)c1 [Example 1.108]
3.51 | Cn1cc(C(=O)N(Cc2cc(F)ccc2C2(C)CC2)C2CC2)c(C(F)F)n1 [Example 1.032]
4.92 | Cc1ccc(C2(C)CC2)c(CN(C(=S)c2oc(C)nc2C(F)F)C2CC2)c1 [Example 1.053]
5.31 | CCCC1(c2cc(Cl)ccc2CN(C(=O)c2nn(C)nc2C(F)F)C2CC2)CC1 [Example 1.112]
4.37 | Cc1ccc(C2(C)CC2)c(CN(C(=O)c2nn(C)nc2C(F)F)C2CC2)c1 [Example 1.050]
3.41 | Cn1cc(C(=O)N(Cc2ccccc2C2(C(F)(F)F)CC2)C2CC2)c(C(F)F)n1 [Example 1.145]
5.14 | Cc1ccc(C2(C)CC2)c(CN(C(=O)c2sccc2I)C2CC2)c1 [Example 1.034]
3.39 | Cn1cc(C(=O)N(Cc2c(Br)cccc2C2(C(F)F)CC2)C2CC2)c(C(F)F)n1 [Example 1.142]
4.36 | Cc1ccc(C2(C)CC2)c(CN(C(=O)c2c(C(F)F)nn(C)c2C(F)F)C2CC2)c1 [Example 1.035]
3.42 | Cc1ccc(C2(Cl)CC2)c(CN(C(=O)c2c(C)nn(C)c2F)C2CC2)c1 [Example 1.106]
5.65 | Cc1ccc(C2(C(C)C)CC2)c(CN(C(=O)c2cc(C)oc2C)C2CC2)c1 [Example 1.118]
4.19 | CCC1(c2ccc(C)cc2CN(C(=O)c2cn(C)nc2C(F)F)C2CC2)CC1 [Example 1.092]
3.09 | Cn1cc(C(=O)N(Cc2ccc(F)cc2C2(C(F)F)CC2)C2CC2)c(C(F)F)n1 [Example 1.133]
4.36 | CCC1(c2cc(C(F)(F)F)ccc2CN(C(=O)c2cn(C)nc2C(F)F)C2CC2)CC1 [Example 1.077]
3.02 | CCOC1(c2ccc(C)cc2CN(C(=O)c2cn(C)nc2C)C2CC2)CC1 [Example 1.129]
4.23 | Cn1cc(C(=S)N(Cc2cc(Cl)ccc2C2(C(F)(F)F)CC2)C2CC2)c(C(F)F)n1 [Example 1.149]
5.35 | Cc1ccc(C2(C)CC2)c(CN(C(=O)c2c(C(F)F)nn(C(C)(C)C)c2C(F)F)C2CC2)c1 [Example 1.039]
4.98 | Cc1cc(C(=O)N(Cc2ccc(Cl)cc2C2(C)CC2)C2CC2)c(C)o1 [Example 1.007]
4.82 | Cc1ccc(C2(C)CC2)c(CN(C(=O)c2c(C(F)(F)F)nn(C)c2Cl)C2CC2)c1 [Example 1.041]
4.56 | Cc1ccc(C2(C)CC2)c(CN(C(=O)c2nc(C)oc2C(F)F)C2CC2)c1 [Example 1.044]

logP | SMILES
4.18 | CCC1(c2ccc(Cl)cc2CN(C(=O)c2cn(C)nc2C(F)F)C2CC2)CC1 [Example 1.086]
5.08 | Cc1ccc(C2(C(C)C)CC2)c(CN(C(=O)c2nn(C)nc2C(F)F)C2CC2)c1 [Example 1.121]
4.11 | CCC1(c2cc(C)ccc2CN(C(=O)c2c(C)nn(C)c2F)C2CC2)CC1 [Example 1.075]
3.06 | Cc1nn(C)c(F)c1C(=O)N(Cc1ccc2c(c1C1(C)CC1)OCO2)C1CC1 [Example 1.056]
5.48 | Cc1cc(C(=O)N(Cc2ccc(-c3ccccc3)cc2C2(C)CC2)C2CC2)c(C)o1 [Example 1.021]
4.37 | Cn1cc(C(=S)N(Cc2cc(Cl)ccc2C2(C)CC2)C2CC2)c(C(F)F)n1 [Example 1.031]
3.78 | Cn1cc(C(=O)N(Cc2cc(Cl)ccc2C2(C(F)(F)F)CC2)C2CC2)c(C(F)F)n1 [Example 1.147]
4.31 | Cc1cc(C(=O)N(Cc2ccccc2C2(C(F)(F)F)CC2)C2CC2)c(C)o1 [Example 1.146]
3.37 | Cn1cc(C(=O)N(Cc2cc(Cl)ccc2C2(C(F)F)CC2)C2CC2)c(C(F)F)n1 [Example 1.135]
4.90 | Cc1ccc(C2(C(C)C)CC2)c(CN(C(=O)c2nn(C)cc2C(F)F)C2CC2)c1 [Example 1.117]
5.00 | C=Cc1cc(C(=O)N(Cc2cc(C)ccc2C2(C)CC2)C2CC2)c(C)o1 [Example 1.049]
3.52 | Cn1cc(C(=O)N(Cc2ccc(F)cc2C2(C)CC2)C2CC2)c(C(F)F)n1 [Example 1.013]
4.98 | Cc1ccc(C2(C(C)C)CC2)c(CN(C(=S)c2cn(C)nc2C(F)F)C2CC2)c1 [Example 1.125]
3.60 | CCOC1(c2ccc(C)cc2CN(C(=O)c2cn(C)nc2C(F)F)C2CC2)CC1 [Example 1.128]
4.16 | CCC1(c2cc(C)ccc2CN(C(=O)c2cn(C)nc2C(F)F)C2CC2)CC1 [Example 1.074]
3.63 | CCC1(c2cccc(F)c2CN(C(=O)c2c(C)nn(C)c2F)C2CC2)CC1 [Example 1.103]
4.04 | Cn1cc(C(=S)N(Cc2cccc(F)c2C2(C)CC2)C2CC2)c(C(F)F)n1 [Example 1.006]
4.25 | CCC1(c2cc(Cl)ccc2CN(C(=O)c2c(C)nn(C)c2F)C2CC2)CC1 [Example 1.069]
3.31 | COc1ccc(CN(C(=O)c2cn(C)nc2C(F)F)C2CC2)c(C2(C)CC2)c1 [Example 1.017]
4.35 | Cc1ccc(C2(C)CC2)c(CN(C(=O)c2ccoc2C(F)F)C2CC2)c1 [Example 1.043]

Same assay, conditions: Table 2, compounds of formula (I); HPLC C 18, 40° C., 0.1% aqueous formic acid and acetonitrile

logP | SMILES
3.73 | Cn1cc(C(=O)N(Cc2cccc3c2C2(CCC3)CC2)C2CC2)c(C(F)F)n1 [Ia.02]
3.51 | Cn1cc(C(=O)N(Cc2cccc3c2C2(CC3)CC2)C2CC2)c(C(F)F)n1 [Ia.01]
4.06 | Cn1cc(C(=O)N(Cc2cccc3c2C2(CCC3)CC2(Cl)Cl)C2CC2)c(C(F)F)n1 (racemic) [Ia.04]

Same assay, conditions: reversed-phase C18 HPLC column; given in the preparation examples

chromatographic logP | SMILES
3.09 | Cn1cc(C(=O)N(Cc2cc(F)ccc2C2(C(F)F)CC2)C2CC2)c(C(F)F)n1 [I.137, N-cyclopropyl-3-(difluoromethyl)-N-{2-[1-(difluoromethyl)cyclopropyl]-5-fluorobenzyl}-1-methyl-1H-pyrazole-4-carboxamide]
